The results in this text go back to ChEMBL document CHEMBL1141704, “Substituted ajoenes as novel anti-cancer agents” (Bioorg Med Chem Lett, 2008).

The test system of this assay is Fibroblast. In words: Anticancer activity against cobalt radiation CT-1 transformed fibroblasts. It counts as functional, cell-based.

In the case of `C=CCSS/C=C/C[S+]([O-])CCCOCc1ccc(OC)cc1` (stereo not drawn), half-maximal inhibition (IC50) required 23.5 µM.
With `C=CCSS/C=C/C[S+]([O-])CC=C` (stereo not drawn) [AJOENE] the figure was 17.6 µM; with `C=CCSS/C=C/C[S+]([O-])CCCO` (stereo not drawn), 23.1 µM; with `C=CCSS/C=C\C[S+]([O-])CC=C` (stereo not drawn) [(Z)-Ajoene], 15.5 µM.
With `C=CCSS/C=C\C[S+]([O-])CCCO` (stereo not drawn), the IC50 came out at 22.8 µM.
Compound `C=CCSS/C=C\C[S+]([O-])CCCOCc1ccc(OC)cc1` (stereo not drawn) yielded an IC50 of 21.7 µM.
On to `C=CCSS/C=C/C[S+]([O-])C(C)(C)C` (stereo not drawn), for which 33.1 µM corresponded to half-maximal inhibition (IC50).
As for `C=CCSS/C=C\C[S+]([O-])CCC` (stereo not drawn), the IC50 amounted to 17 µM.
As for `C=CCSS/C=C/C[S+]([O-])CCCN1C(=O)c2ccccc2C1=O` (stereo not drawn), the figure is 95.9 µM; as for `C=CCSS/C=C\C[S+]([O-])CCCN1C(=O)c2ccccc2C1=O` (stereo not drawn), 34.6 µM; as for `C=CCSS/C=C/C[S+]([O-])Cc1ccc(OC)cc1` (stereo not drawn), 11.2 µM.
As for `C=CCSS/C=C/C[S+]([O-])Cc1ccccc1` (stereo not drawn), the figure is 16.6 µM; as for `C=CCSS/C=C/C[S+]([O-])CCC` (stereo not drawn), 26.7 µM.

As a reminder, the IC50 is the concentration needed to halve the response being measured. High values mean lower potency, low ones higher potency.
